Source: US12247032B2, “Substituted pyrazolo[1,5-a]pyrimidines as inhibitors of JAK kinases” (Genentech, Inc., priority 2019, dated 2025)
Read-outs that look alike come from different tables or passages of the source.

How the values were obtained:
[1] = test system: JAK1 (IL-13-stimulated STAT6 phosphorylation in BEAS-2B cells); assay: P-STAT6 BEAS-2B+IL-13 cell assay; type: cell-based, human; conditions: 1 hour compound, IL-13 15 minutes, IC50 by four-parameter fit, read-out: Cellular JAK1 PSTAT6 BEAS2B + IL13
Procedure: In order to study the effect of JAK1 inhibitors in a cell line that is relevant to the cell biology of human asthma, an IL-13-stimulated STAT6 phosphorylation assay in the human lung bronchial epithelial BEAS-2B cell line was developed.
BEAS-2B cells (ATCC® CRL-9609™) were grown in Bronchial Epithelial Growth Medium (BEGM) (Lonza Catalog No. CC-3170; Walkersville, MD; or PromoCell Catalog No. C-21060; Heidelberg, Germany). Test compound stock solutions (0.5 mM in DMSO) were serially diluted 1:2 in DMSO to generate a 10-point concentration curve (at 500× test concentration), which was further diluted by a 50-fold dilution step in BEGM to generate a 10× concentration curve (in 2% DMSO). Cells were plated at 100,000 cells/well in 200 μL of BEGM in 96-well plates and incubated for 48 hours at 37° C. in a humidified incubator. Medium was aspirated from the cells and replaced with 70 μL of fresh BEGM. Diluted test compound (10 μL; or 2% DMSO in assay medium) was added to the cells, and the plates were incubated for 1 hour at 37° C. in a humidified incubator. Twenty μL of 250 ng/mL human recombinant IL-13 (Bio Techne Catalog No. 213-ILB) was then added to the cells and incubated for 15 minutes at 37° C. Medium was aspirated from the cells and 60 μL of ice-cold 1×cell lysis buffer (Cell Signaling Technologies; Catalog No. 9803S) containing 1 mM PMSF was added to the cells. Assay plates were incubated at −80° C. for at least 1 hour. P-STAT6 was measured by coating GAR plates (MSD; Catalog No. L45RA-1) with rabbit anti-human total STAT6 antibody (Cell Signaling Technologies; Catalog No. 9362S), incubating the cell lysates in the coated plates overnight at 4° C., and then detecting with mouse anti-phospho-STAT6 (Tyr641) Clone 16E12 antibody (Millipore; Catalog No. 05-590, custom labeled by MSD with SULFO-tag) using standard MSD plate processing, washing, and detection protocols. Plates were read on the MESO SECTOR S600.
Data analysis was performed by subtracting negative control values from all wells and determining percent of control using the positive control values; the IC50 was determined with a four-parameter logistic fit model as shown in Equation 4.

[2] = molecular target: T1, recombinant human JAK1 kinase domain protein (Residues 854-1154) (Homo sapiens, UniProt P23458); assay: JAK1 biochemical assay (microfluidic mobility shift, peptide phosphorylation); conditions: 25 μM ATP, 1 nM total JAK1; Ki calculated from Ki app (tight-binding, competitive); read-out: Biochem JAK1 Ki
T1 construct: human JAK1 kinase domain protein (Residues 854-1154); purchased Proteros Biostructures GmbH (Martinsried, Germany); host or cells: insect cells
T1 sequence (P23458 854-1154): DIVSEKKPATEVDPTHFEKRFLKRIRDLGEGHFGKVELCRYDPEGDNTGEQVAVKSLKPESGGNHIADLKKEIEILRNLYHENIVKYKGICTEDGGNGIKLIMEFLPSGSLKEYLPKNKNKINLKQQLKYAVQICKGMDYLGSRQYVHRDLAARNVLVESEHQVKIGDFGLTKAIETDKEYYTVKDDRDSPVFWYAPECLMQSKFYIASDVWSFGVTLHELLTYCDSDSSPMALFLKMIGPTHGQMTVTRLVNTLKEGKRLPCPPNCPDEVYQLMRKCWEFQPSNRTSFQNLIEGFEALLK
Procedure: (§1) The in vitro biochemical assays quantify JAK-catalyzed phosphorylation of a synthetic peptide, as detected using a LabChip® EZ Reader II microfluidic mobility shift instrument (PerkinElmer; Waltham, MA). The substrate peptide Y-1B has the sequence 5-FAM-VALVDGYFRLTT-NH2. Y-1B is fluorescently labeled on the N-terminus with 5-FAM (5-carboxyfluorescein) and contains a single tyrosine residue (Y) that can be phosphorylated by JAK activity. The substrate peptide stock is prepared in DMSO at 5 mM. Purified recombinant human JAK1 kinase domain protein (Residues 854-1154) was expressed in insect cells and procured from Proteros Biostructures GmbH (Martinsried, Germany). Recombinant human JAK2 kinase domain protein (Residues 812-1132) was expressed in insect cells and purified at Genentech, Inc. (South San Francisco, CA).
(§2) The kinase reaction mixtures contained 100 mM 4-(2-hydroxyethyl)-1-piperazineethanesulfonic acid (HEPES) buffer (pH 7.2), 10 mM magnesium chloride, 0.015% Brij® 35, 4 mM dithiothreitol, 1.5 μM Y-1B peptide substrate, 25 μM adenosine triphosphate (ATP), 1 nM total JAK1 or 0.2 nM total JAK2, and up to 1000 nM test compound in a final concentration of 2% (volume to volume [v/v]) DMSO. In each titration experiment, test compound was tested in duplicate at each of the twelve concentrations. Blank reactions contained ATP, peptide, and DMSO, but no JAK or test compound, whereas uninhibited control reactions contained ATP, peptide, JAK, and DMSO, but no test compound.
(§3) Peptide plus ATP mixture (24 μL) was added to 1 μL of test compound in DMSO (or DMSO alone). The reactions were initiated by adding 25 μL of JAK enzyme to the inhibitor/peptide/ATP mixture before thoroughly mixing the resultant solution. Reactions were incubated at room temperature (22° C.-23° C.) in a final volume of 50 μL per well in 384-well plates. After a 30-minute incubation, the reactions were stopped by adding 25 μL of 150 mM ethylenediaminetetraacetic acid in 100 mM HEPES buffer (pH 7.2) containing 0.015% Brij 35 to each well.
(§4) In each reaction, the residual Y-1B substrate and the phospho-peptide product generated were separated using the EZ Reader 1 instrument. Electrophoretic separation of molecules of product from molecules of substrate was achieved using downstream and upstream voltages of −500 and −2600 V, respectively, at an operating pressure of −1.3 psi. The 5-FAM group present on both the substrate and product peptides was excited at 488 nm, the fluorescence was detected at 530 nm, and the peak heights were reported.
(§5) The extent (or percent) of conversion of substrate to product was calculated from the corresponding peak heights in the electropherogram using HTS Well Analyzer software, Version 5.2 (PerkinElmer), and the following equation (Equation 1): % conversion=[P[…](S+P)]×100 Equation 1 where S and P represent the peak heights of the substrate and product, respectively. After any baseline signal from blank wells containing no JAK was subtracted from the signal of all test wells, the % conversion data were converted to fractional activity as shown in Equation 2, where νi and νo are the % conversion in the presence and absence of test compound, respectively. The % conversion observed in the uninhibited control reactions containing JAK and DMSO vehicle, but no test compound, was defined to have fractional activity=1 (with no inhibitor present, νi=νo), whereas blank wells with no JAK were defined as having fractional activity=0. Fractional activity was plotted against test compound concentration and the data were fitted using XLfit software (IDBS; Guildford, United Kingdom) to a tight-binding apparent inhibition constant (Ki^app) quadratic equation (see Equation 2) (Williams J W, Morrison J F. The kinetics of reversible tight-binding inhibition. Methods Enymol 1979; 63:437-67), which was used to calculate fractional activity and Ki^app […]

[3] = molecular target: T2, Recombinant human JAK2 kinase domain protein (Residues 812-1132) (Homo sapiens, UniProt O60674); assay: JAK2 biochemical assay (microfluidic mobility shift, peptide phosphorylation); conditions: 25 μM ATP, 0.2 nM total JAK2; Ki calculated from Ki app (tight-binding, competitive); read-out: Biochem JAK2 Ki
T2 construct: human JAK2 kinase domain protein (Residues 812-1132); made in house; host or cells: insect cells
T2 sequence (O60674 812-1132): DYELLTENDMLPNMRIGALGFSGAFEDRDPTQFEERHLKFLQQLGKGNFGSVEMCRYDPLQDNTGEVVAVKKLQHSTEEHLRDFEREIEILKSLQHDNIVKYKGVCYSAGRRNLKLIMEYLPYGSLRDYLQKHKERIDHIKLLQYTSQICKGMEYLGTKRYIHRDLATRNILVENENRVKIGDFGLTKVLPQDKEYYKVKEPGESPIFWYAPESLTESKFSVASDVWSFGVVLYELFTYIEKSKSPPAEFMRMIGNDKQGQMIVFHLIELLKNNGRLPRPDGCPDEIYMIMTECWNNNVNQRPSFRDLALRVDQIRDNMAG
Procedure: as §1, §2, §3, §4, §5

Ki [2] [nM] | Ki [3] [nM] | SMILES | IC50 ([1]; Homo sapiens, BEAS-2B, 1 h) [nM] | IC50 [1] [nM]
0.38 | 0.39 | CN(C)C(C)(C)CCN1CC(n2nnc(Cn3cc(NC(=O)c4cnn5cccnc45)c(-c4cc(OC(F)F)ccc4OC(F)F)n3)n2)C1 [Example 77, N-[3-[2,5-bis(difluoromethoxy)phenyl]-1-[[2-[1-[3-(dimethylamino)-3-methyl-butyl]azetidin-3-yl]tetrazol-5-yl]methyl]pyrazol-4-yl]pyrazolo[1,5-a]pyrimidine-3-carboxamide] | 110 | 
0.71 | 0.55 | CN(C)CCCN1CC(n2nnc(Cn3cc(NC(=O)c4cnn5cccnc45)c(-c4cc(C5CC5)ccc4OC(F)F)n3)n2)C1 [Example 57, N-[3-[5-cyclopropyl-2-(difluoromethoxy)phenyl]-1-[[2-[1-[3-(dimethylamino)propyl]azetidin-3-yl]tetrazol-5-yl]methyl]pyrazol-4-yl]pyrazolo[1,5-a]pyrimidine-3-carboxamide] | 73 | 
0.63 | 0.54 | CN1CC(N(C)CCn2nnc(Cn3cc(NC(=O)c4cnn5cccnc45)c(-c4cc(OC(F)F)ccc4OC(F)F)n3)n2)C1 [Example 48, N-[3-[2,5-bis(difluoromethoxy)phenyl]-1-[[2-[2-[methyl-(1-methylazetidin-3-yl)amino]ethyl]tetrazol-5-yl]methyl]pyrazol-4-yl]pyrazolo[1,5-a]pyrimidine-3-carboxamide] | 15 | 
0.6 | 0.58 | CN(C)CCCCN1CC(n2nnc(Cn3cc(NC(=O)c4cnn5cccnc45)c(-c4cc(OC(F)F)ccc4OC(F)F)n3)n2)C1 [Example 55, N-[3-[2,5-bis(difluoromethoxy)phenyl]-1-[[2-[1-[4-(dimethylamino)butyl]azetidin-3-yl]tetrazol-5-yl]methyl]pyrazol-4-yl]pyrazolo[1,5-a]pyrimidine-3-carboxamide] | 44 | 
0.4 | 0.31 | CN1CCC(n2nnc(Cn3cc(NC(=O)c4cnn5cccnc45)c(-c4cc(OC(F)F)ccc4OC(F)F)n3)n2)C1 (single isomer, unassigned) [Example 30, N-[3-[2,5-bis(difluoromethoxy)phenyl]-1-[[2-(1-methylpyrrolidin-3-yl)tetrazol-5-yl]methyl]pyrazol-4-yl]pyrazolo[1,5-a]pyrimidine-3-carboxamide] |  | 17

Further lines, the compound ahead of its results:

SMILES | Ki [2] [nM] | Ki [3] [nM] | IC50 ([1]; Homo sapiens, BEAS-2B, 1 h) [nM] | IC50 [1] [nM]
CN1CC(N(C)CCn2nnnc2Cn2cc(NC(=O)c3cnn4cccnc34)c(-c3cc(OC(F)F)ccc3OC(F)F)n2)C1 [Example 45, N-[3-[2,5-bis(difluoromethoxy)phenyl]-1-[[1-[2-[methyl-(1-methylazetidin-3-yl)amino]ethyl]tetrazol-5-yl]methyl]pyrazol-4-yl]pyrazolo[1,5-a]pyrimidine-3-carboxamide] | 0.81 | 0.65 | 81 | 
O=C(Nc1cn(Cc2nnn(C3COC3)n2)nc1-c1cc(Cl)ccc1OC(F)F)c1cnn2cccnc12 [Example 4, N-[3-[5-chloro-2-(difluoromethoxy)phenyl]-1-[[2-(oxetan-3-yl)tetrazol-5-yl]methyl]pyrazol-4-yl]pyrazolo[1,5-a]pyrimidine-3-carboxamide] | 0.23 | 0.12 | 6.8 | 
CC(C)Sc1ccc(OC(F)F)c(-c2nn(Cc3nnn(C4CN(C5CCN(C)CC5)C4)n3)cc2NC(=O)c2cnn3cccnc23)c1 [Example 79, N-[3-[2-(difluoromethoxy)-5-isopropylsulfanyl-phenyl]-1-[[2-[1-(1-methyl-4-piperidyl)azetidin-3-yl]tetrazol-5-yl]methyl]pyrazol-4-yl]pyrazolo[1,5-a]pyrimidine-3-carboxamide] | 0.5 | 0.44 | 40 | 
NC1CCC(n2nnnc2Cn2cc(NC(=O)c3cnn4cccnc34)c(-c3cc(OC(F)F)ccc3OC(F)F)n2)CC1 (stereo not drawn) [Example 69, N-[1-[[1-(4-aminocyclohexyl)tetrazol-5-yl]methyl]-3-[2,5-bis(difluoromethoxy)phenyl]pyrazol-4-yl]pyrazolo[1,5-a]pyrimidine-3-carboxamide] | 0.75 | 0.97 | ≥ 1000 | 
CSc1ccc(OC(F)F)c(-c2nn(Cc3nnnn3CCN(C)C)cc2NC(=O)c2cnn3cccnc23)c1 [Example 41, N-[3-[2-(difluoromethoxy)-5-methylsulfanyl-phenyl]-1-[[1-[2-(dimethylamino)ethyl]tetrazol-5-yl]methyl]pyrazol-4-yl]pyrazolo[1,5-a]pyrimidine-3-carboxamide] | 0.32 | 0.2 | 14 | 
O=C(Nc1cn(Cc2nnn(CCN3CCNCC3)n2)nc1-c1cc(Cl)ccc1OC(F)F)c1cnn2cccnc12 [Example 40, N-[3-[5-chloro-2-(difluoromethoxy)phenyl]-1-[[2-(2-piperazin-1-ylethyl)tetrazol-5-yl]methyl]pyrazol-4-yl]pyrazolo[1,5-a]pyrimidine-3-carboxamide] | 0.78 | 0.68 | 86 | 
CN(C)CCn1nnc(Cn2cc(NC(=O)c3cnn4cccnc34)c(-c3cc4c(cc3OC(F)F)NCCO4)n2)n1 [Example 43, N-[3-[6-(difluoromethoxy)-3,4-dihydro-2H-1,4-benzoxazin-7-yl]-1[[2-[2-(dimethylamino)ethyl]tetrazol-5-yl]methyl]pyrazol-4-yl]pyrazolo[1,5-a]pyrimidine-3-carboxamide] | 0.86 | 0.34 | 36 | 
